Reference: PMC5159850, “An adenylyl cyclase with a phosphodiesterase domain in basal plants with a motile sperm system” (Scientific Reports, 2016)

Target: T1, His-MpCAPE-PDE (Marchantia polymorpha, UniProt A0A1V1FXL5)
T1 construct: gene CAPE; N-terminal PDE domain 101-479 of 1610-residue MpCAPE; 6xHis and T7 tags (pET28a); E. coli Rosetta2(DE3)pLysS host; partially purified on Ni column
Test: reverse-phase HPLC of AMP or GMP formed, […] nm
Format: biochemical
Details: 0.5 mM cGMP, 0.5 mM MgCl2, MnCl2 or FeCl2, Tris-HCl pH 8.0, 37 °C, 20 min; partially purified protein

T1 sequence (A0A1V1FXL5 entry or part of it): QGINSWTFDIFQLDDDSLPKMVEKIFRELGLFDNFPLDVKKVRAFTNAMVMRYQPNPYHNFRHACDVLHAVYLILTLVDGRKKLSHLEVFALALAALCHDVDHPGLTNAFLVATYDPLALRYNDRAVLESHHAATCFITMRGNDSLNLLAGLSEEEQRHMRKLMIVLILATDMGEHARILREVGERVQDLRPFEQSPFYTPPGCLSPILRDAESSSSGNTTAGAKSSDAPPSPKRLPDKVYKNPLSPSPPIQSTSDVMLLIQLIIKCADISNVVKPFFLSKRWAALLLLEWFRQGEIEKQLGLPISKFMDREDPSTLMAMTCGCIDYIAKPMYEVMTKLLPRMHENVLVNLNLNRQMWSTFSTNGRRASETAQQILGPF

Nc1nc2c(ncn2[C@@H]2O[C@@H]3COP(=O)(O)O[C@H]3[C@H]2O)c(=O)[nH]1 [cGMP]
reverse-phase HPLC of AMP or GMP formed, 259 nm: The result showed that His-MpCAPE-PDE hydrolyzed both cAMP and cGMP
